Measured values reported in patent US6906035B2, “Antimicrobial cationic peptides” (priority 1995, dated 2005).
Where “and” joins values, the source holds several entries; their conditions need not be identical. Equal entries are not always repeated. Where two headings read alike, the source gives them in different places.

Legend:
[1] = tested on: LPS; assay: Dansyl polymyxin displacement assay; assay type: binding; conditions: Dansyl polymyxin displacement from LPS
Text: In addition, the peptides of SEQ ID NO: 5-8 also bound effectively to LPS with high affinity based on Dansyl polymyxin displacement assays (Table 5).

[2] = α helical content by CD spectra; assay type: physicochemical
Method: α Helical Content of Cationic Peptides by CD Spectra
The α helical content of the peptides were measured in buffer, liposomes and 20% Hexafluoroisopropanol (HFPIP). The liposomes constituted of POPC alone or POPC and POPC and 30% POPG (Table 7).

[3] = tested on: RAW cells; assay: RAW cell viability by Trypan blue exclusion; assay type: cell-based; conditions: up to 50 μg peptide
[4] = tested on: E. coli ML 35; assay: Inner membrane permeabilization (ONPG hydrolysis by β-galactosidase); assay type: cell-based; conditions: E. coli ML 35, ONPG
Method: Inner membrane permeability was determined by measurement in E. coli ML 35 of β-galactosidase activity using ONPG as a substrate. Normally ONPG cannot pass across the cytoplasmic membrane to permit hydrolysis by the cytoplasmic enzyme β-galactosidase. However, cationic peptides, by permeabilizing the inner membrane, unmasks this enzyme leading to color development as ONP is released. […] Addition of citrate increased the lag time before the peptides were able to permeabilize the membranes. When the experiments were executed in cation adjusted media (CAMHB), the lag time was increased up to 30 minutes.

[5] = tested on: X. maltophila; assay: organism not typed; conditions: agent alone
Method: (§1) FICs are performed by checkerboard titrations of peptides in one dimension of a microtiter plate, and of antibiotics in the other dimension, for example. The FIC is calculated by looking at the impact of one antibiotic on the MIC of the other and vice versa. […] Preferably, an FIC of less than 0.5 is obtained for synergism. As used herein, FIC can be determined as follows: [formula]
(§2) Synergism is identified as an FIC of about ≦0.5.

[6] = tested on: S. epidermis; conditions: S. epidermis
Method: as §1
(§3) Briefly, cells were grown overnight at 37° C. in LB-S (Luria broth without any salt supplement) and diluted one in 10,000 in the same medium to give concentrations of about 10^4 to 10^5 CFU/ml. The broth dilutions were set up in a 96 well microtiter plate by putting 200 μl of LB-S containing the initial concentration of antibiotic or compound in column 1 and 100 μl of the same medium in columns 2-12. The compounds were diluted by taking 100 μl of broth from column 1 and mixing it with column 2, resulting in a one in two dilution. This was continued to column 10. Finally, 10 μl of bacteria were pipetted into columns 1-11, and the plates incubated overnight at 37° C. The next day the plates were scored for growth in the wells, and the MIC determined.

[7] = tested on: P. aeruginosa
Method: as §1, §3

[8] = tested on: X maltophilia; assay: MIC, broth dilution in LB-S; assay type: cell-based; conditions: additional MICs
Method: (§4) The biological activity of the peptides can be determined by standard methods known to those of skill in the art, such as “minimal inhibitory concentration (MIC)” assay described in the present examples, whereby the lowest concentration at which no change in OD is observed for a given period of time is recorded as MIC. Alternatively, “fractional inhibitory concentration (FIC)” is also useful for determination of synergy between the peptides of the invention, or the peptides in combination with known antibiotics. FICs are performed by checkerboard titrations of peptides in one dimension of a microtiter plate, and of antibiotics in the other dimension, for example. The FIC is calculated by looking at the impact of one antibiotic on the MIC of the other and vice versa. […] Preferably, an FIC of less than 0.5 is obtained for synergism. As used herein, FIC can be determined as follows: [formula]
as §3

[9] = tested on: K. pneumoniae; assay: MIC, broth dilution in LB-S; assay type: cell-based; conditions: additional MICs
Method: as §4, §3

[10] = tested on: E. coli; assay: MIC, broth dilution in LB-S; assay type: cell-based
Method: as §4, §3

[11] = tested on: S. aureus; assay: MIC, broth dilution in LB-S; assay type: cell-based
Method: as §4, §3

[12] = tested on: E. cloacae; assay: MIC, broth dilution in LB-S; assay type: cell-based; conditions: additional MICs
Method: as §4, §3

[13] = tested on: E. faecalis; assay: MIC, broth dilution in LB-S; assay type: cell-based; conditions: Table 1b, separate set of experiments
Method: as §4, §3

[14] = tested on: A. calcoaceticus; assay: MIC, broth dilution in LB-S; assay type: cell-based; conditions: additional MICs
Method: as §4, §3

[15] = tested on: P. aeruginosa; assay: microbe, parasite or virus in culture; conditions: agent alone
Method: as §1, §2

[16] = tested on: Candida albicans; assay: MIC, broth dilution in LB-S; assay type: cell-based
Method: as §1, §3

[17] = tested on: Red Blood Cells; assay: Red blood cell lysis; assay type: cell-based; conditions: concentration lysing Red Blood Cells
[18] = tested on: E. cloacae; conditions: agent alone
Method: as §1, §2

[19] = tested on: A. calcoaceticus; conditions: agent alone
Method: as §1, §2

In the case of `CC[C@H](C)[C@H](NC(=O)[C@H](CC(C)C)NC(=O)[C@H](C)NC(=O)[C@@H]1CCCN1C(=O)[C@H](CC(C)C)NC(=O)CNC(=O)[C@@H](NC(=O)[C@@H](NC(=O)[C@H](CC(C)C)NC(=O)[C@@H](NC(=O)[C@H](CCCCN)NC(=O)[C@H](CCCCN)NC(=O)[C@@H](NC(=O)[C@H](C)NC(=O)[C@@H](NC(=O)[C@@H](NC(=O)[C@H](CC(C)C)NC(=O)[C@H](CCCCN)NC(=O)[C@H](CCCCN)NC(=O)[C@@H](NC(=O)[C@H](Cc1ccccc1)NC(=O)[C@H](CO)NC(=O)[C@H](CCCCN)NC(=O)[C@H](Cc1c[nH]c2ccccc12)NC(=O)[C@@H](N)CCCCN)[C@@H](C)CC)[C@@H](C)O)[C@@H](C)O)C(C)C)C(C)C)[C@@H](C)O)[C@@H](C)O)C(=O)N[C@@H](CO)C(=O)O` [MBI 29], the 1max [1] is reported as 40%, the “% α helicity” value ([2]; 20% HFIP) is reported as 50% and the “% α helicity” value ([2]; Buffer) is reported as 0%. The “% α helicity” value ([2]; POPC Liposomes) was 16%, the “% α helicity” value ([2]; POPC/POPG Liposomes (30% POPG)) was 8% and the RAW cell viability [3] was “no apparent decrease”. For the same molecule, the “Lag Time” value [4] was 66 s, the “Rate of Hydrolysis” value [4] was 0.21 ΔAU min^−1 and the MIC ([5]; X. maltophila isolate 35, strain 6) was 32 µg/mL and 16 µg/mL. The MIC ([5]; X. maltophila isolate 36, strain 16) was 32 µg/mL, the MIC ([5]; X. maltophila isolate 37, strain 3095) was 64 µg/mL and the MIC ([5]; X. maltophila isolate 38, strain 7901) was 64 µg/mL. For the same molecule, the MIC ([5]; X. maltophila isolate 39, strain B3110.1) was 32 µg/mL, the MIC ([5]; X. maltophila isolate 40, strain R1302-1) was 32 µg/mL and 64 µg/mL and the MIC ([5]; X. maltophila isolate 41, strain R4230) was 16 µg/mL and 32 µg/mL. The MIC ([5]; X. maltophila isolate 43, strain TF29-2) was 16 µg/mL and 32 µg/mL, the MIC ([6]; Table 1a) was 10 µg/mL and the MIC ([6]; Table 1b, separate set of experiments) was 16 µg/mL. The MIC ([6]; Table 1b, separate set of experiments, listed as MBI 29^me) was 8 µg/mL, the MIC ([7]; P. aeruginasa (H 103), additional MICs) was 4 µg/mL and the MIC ([7]; P. aeruginosa (H187), Table 1a) was 5 µg/mL. The MIC ([7]; P. aeruginosa (H187), Table 1b, separate set of experiments) was 16 µg/mL, the MIC ([7]; P. aeruginosa (H187), Table 1b, separate set of experiments, listed as MBI 29^me) was 8 µg/mL and the “MIC P. aeruginosa (H187)” value ([7]; P. aeruginosa (H187), Table 6) was 1.0 µg/mL. It also gave an MIC [8] of 3 µg/mL, an MIC [9] of 16 µg/mL and an MIC ([10]; E. coli 0111:B4, additional MICs) of 2 µg/mL. The MIC ([10]; E. coli (UB1005), Table 1a) was 3 µg/mL, the MIC ([10]; E. coli (UB1005), Table 1b, separate set of experiments) was 4 µg/mL and the “MIC E. coli (UB 1005)” value ([10]; E. coli (UB 1005), Table 6) was 0.5 µg/mL. It also gave an MIC ([10]; E. coli. Bort, additional MICs) of 6 µg/mL, an MIC ([11]; S. aureus (K 147), Table 1a) of 20 µg/mL and an MIC ([11]; S. aureus (K147), Table 1b, separate set of experiments) of 32 µg/mL. The MIC ([11]; S. aureus (K147), Table 1b, separate set of experiments, listed as MBI 29^me) was 16 µg/mL, the MIC ([11]; S. aureus (SAP0017), Table 1a) was 18 µg/mL and the MIC ([11]; S. aureus (SAP0017), Table 1b, separate set of experiments) was 32 µg/mL. It also gave an MIC ([11]; S. aureus (SAP0017), Table 1b, separate set of experiments, listed as MBI 29^me) of 16 µg/mL, an MIC [12] of 2 µg/mL and an MIC [13] of 32 µg/mL. For the same molecule, the MIC ([13]; listed as MBI 29^me) was “≧64”, the MIC [14] was 4 µg/mL and the MIC ([15]; P. aeruginosa isolate 23, strain ATCC 27853) was 32 µg/mL and 64 µg/mL. For the same molecule, the MIC ([15]; P. aeruginosa isolate 24, strain 34) was 32 µg/mL and 16 µg/mL, the MIC ([15]; P. aeruginosa isolate 25, strain 923-1) was 32 µg/mL and 64 µg/mL and the MIC ([15]; P. aeruginosa isolate 26, strain 3101) was 32 µg/mL and 64 µg/mL. For the same molecule, the MIC ([15]; P. aeruginosa isolate 29, strain 15545) was 32 µg/mL and 64 µg/mL, the MIC ([15]; P. aeruginosa isolate 32, strain W2897-1) was 32 µg/mL and 64 µg/mL and the MIC ([16]; Candida albicans (CAN105), Table 1b, separate set of experiments) was 32 µg/mL. The MIC ([16]; Candida alibicans (CAN105), Table 1a) was 40 µg/mL, the “RBC Lysis” value [17] was greater than 55 µg/mL and the MIC ([18]; E. cloacae isolate 12, strain ATCC 13047) was 32 µg/mL and 64 µg/mL. The MIC ([18]; E. cloacae isolate 14, strain 938-2) was 32 µg/mL and 16 µg/mL, the MIC ([18]; E. cloacae isolate 15, strain B5546) was 32 µg/mL and the MIC ([18]; E. cloacae isolate 17, strain R4148-2) was 16 µg/mL and 32 µg/mL. For the same molecule, the MIC ([18]; E. cloacae isolate 18, strain 3077) was 32 µg/mL, the MIC ([18]; E. cloacae isolate 19, strain 3356) was 32 µg/mL and the MIC ([19]; A. calcoaceticus isolate 1, strain ATCC 23055) was 32 µg/mL and 64 µg/mL. The MIC ([19]; A. calcoaceticus isolate 7, strain 8222) was 16 µg/mL and 32 µg/mL, the MIC ([19]; A. calcoaceticus isolate 8, strain 8223) was 16 µg/mL and 32 µg/mL and the MIC ([19]; A. calcoaceticus isolate 9, strain 8224) was 16 µg/mL and 32 µg/mL. The MIC ([19]; A. calcoaceticus isolate 10, strain 8225) was 16 µg/mL and 32 µg/mL and the MIC ([19]; A. calcoaceticus isolate 11, strain 8226) was 16 µg/mL and 32 µg/mL.
